Laboratory results taken from ChEMBL document CHEMBL1127899, “Potent, acid-stable and orally active macrolide-type motilin receptor agonists, GM-611 and the derivatives” (Bioorg Med Chem Lett, 1994).
≈ marks a conversion by molar mass, not a printed value.

Columns and labels:
[1] = tested on: Canis familiaris; experiment: Tested for in vivo smooth muscle contractile activity, expressed as MI100 (dose to give 100 of motor index after iv administration); type: functional, Canis lupus familiaris, Muscle tissue
[2] = molecular target: T1, Motilin receptor (Oryctolagus cuniculus, UniProt A5A4K8); experiment: Concentration required for in vitro acid stability with hydrochloric acid solution (pH 2.5 ) at room temperature for 2 hr by assaying the solution for motilin receptor binding
T1 sequence (A5A4K8 whole entry): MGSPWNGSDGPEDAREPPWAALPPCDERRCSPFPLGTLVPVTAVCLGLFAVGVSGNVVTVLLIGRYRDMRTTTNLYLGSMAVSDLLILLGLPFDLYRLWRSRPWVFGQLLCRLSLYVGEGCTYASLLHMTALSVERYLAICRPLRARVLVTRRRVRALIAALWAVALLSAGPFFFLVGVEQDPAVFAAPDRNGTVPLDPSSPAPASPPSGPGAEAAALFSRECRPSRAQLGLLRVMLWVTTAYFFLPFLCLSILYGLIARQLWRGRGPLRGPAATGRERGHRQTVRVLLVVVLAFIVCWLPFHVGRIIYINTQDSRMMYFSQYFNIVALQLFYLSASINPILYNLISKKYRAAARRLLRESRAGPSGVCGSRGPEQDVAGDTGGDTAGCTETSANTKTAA

[3] = species: Oryctolagus cuniculus; experiment: Concentration required for in vitro smooth muscle contractile activity of the compound, expressed as negative logarithm of EC50; type: functional; details: Muscle tissue
[4] = molecular target: T1, Motilin receptor; experiment: Concentration required for in vitro motilin receptor binding, expressed as negative logarithm of IC50
[5] = tested on: Canis familiaris; experiment: Tested for in vivo smooth muscle contractile activity, expressed as MI100 (dose to give 100 of motor index after ig administration).; type: functional, Canis lupus familiaris, Muscle tissue
[6] = tested on: Streptococcus pneumoniae; experiment: Antibacterial activity against Streptococcus pneumoniae No.12, activity expressed as MIC; type: functional
[7] = tested on: Bacillus subtilis; experiment: Antibacterial activity against Bacillus subtilis ATCC 6633, activity expressed as MIC; type: functional
[8] = tested on: Escherichia coli; experiment: Antibacterial activity against Escherichia coli NIHJ JC-2, activity expressed as MIC; type: functional
[9] = tested on: Klebsiella pneumoniae; experiment: Antibacterial activity against Klebsiella pneumoniae IFO 3512, activity expressed as MIC; type: functional
[10] = tested on: Staphylococcus aureus; experiment: Antibacterial activity against Staphylococcus aureus 209P, activity expressed as MIC; type: functional

Structure (SMILES) | MI100 [1] | IC50 [2] | EC50 [3] | IC50 [4] | MI100 [5] | MIC [6] | MIC [7] | MIC [8] | MIC [9] | MIC [10]
CC[C@H]1OC(=O)[C@H](C)[C@@H](O[C@H]2C[C@@](C)(OC)[C@@H](O)[C@H](C)O2)[C@H](C)[C@@H](O[C@@H]2O[C@H](C)C[C@H](N(C)C)[C@H]2O)[C@@]2(C)CC(C)=C(O2)[C@H](C)[C@@H](O)[C@]1(C)O | 1 µg/kg | 224 nM | 41.7 nM | 3.39 nM | – | – | – | – | – | –
CCC1OC(=O)C(C)C(O[C@H]2C[C@@](C)(OC)[C@@H](O)C(C)O2)C(C)[C@@H](OC2OC(C)CC(N(C)C(C)C)[C@H]2O)[C@]2(C)CC(C)=C(O2)[C@H](C)C(=O)[C@]1(C)OC (some centres undefined) | 1 µg/kg | 7.94 nM | 38.9 nM | 6.03 nM | 1.5 µg/kg | – | – | – | – | –
CCC1OC(=O)C(C)C(O[C@H]2C[C@@](C)(OC)[C@@H](O)C(C)O2)C(C)[C@@H](OC2OC(C)CC(N(C)CC)[C@H]2O)[C@]2(C)CC(C)=C(O2)[C@H](C)C(=O)[C@]1(C)OC (some centres undefined) | 1.1 µg/kg | 6.46 nM | 43.7 nM | 3.8 nM | 4.3 µg/kg | 50 µg/mL (≈ 67.4 µM) | – | – | – | –
CCC1OC(=O)C(C)C(O[C@H]2C[C@@](C)(OC)[C@@H](O)C(C)O2)C(C)[C@@H](OC2OC(C)CC(N(C)C)[C@H]2O)[C@@](C)(O)C[C@@H](C)C(=O)[C@H](C)[C@@H](O)[C@]1(C)O (some centres undefined) | 32.3 µg/kg | 70.8 nM | 316 nM | 43.7 nM | – | 0.1 µg/mL (≈ 0.136 µM) | 0.39 µg/mL (≈ 0.531 µM) | 100 µg/mL (≈ 136 µM) | 6.3 µg/mL (≈ 8.58 µM) | 0.39 µg/mL (≈ 0.531 µM)
CCC1OC(=O)C(C)C(O[C@H]2C[C@@](C)(OC)[C@@H](O)C(C)O2)C(C)[C@@H](OC2OC(C)CC(N(C)C)[C@H]2O)[C@]2(C)CC(C)=C(O2)[C@H](C)C(=O)[C@]1(C)OC (some centres undefined) | 2.9 µg/kg | 8.91 nM | 117 nM | 9.12 nM | 2.4 µg/kg | 3.1 µg/mL (≈ 4.26 µM) | 6.3 µg/mL (≈ 8.65 µM) | – | 100 µg/mL (≈ 137 µM) | 13 µg/mL (≈ 17.9 µM)
CCC1OC(=O)C(C)C(O[C@H]2C[C@@](C)(OC)[C@@H](O)C(C)O2)C(C)[C@@H](OC2OC(C)CC(N(C)C)[C@H]2O)[C@]2(C)CC(C)C3(O[C@]1(C)[C@H](O)[C@H]3C)O2 (some centres undefined) | >70 µg/kg | 170 nM | > 10000 nM | 155 nM | – | – | – | – | – | –
CCC1OC(=O)C(C)C(O[C@H]2C[C@@](C)(OC)[C@@H](O)C(C)O2)C(C)[C@@H](OC2OC(C)CC(N(C)CC)[C@H]2O)[C@]2(C)CC(C)=C(O2)[C@H](C)[C@@H](O)[C@]1(C)O (some centres undefined) | 0.9 µg/kg | 302 nM | 47.9 nM | 3.16 nM | 14.9 µg/kg | 25 µg/mL (≈ 34.2 µM) | 100 µg/mL (≈ 137 µM) | – | – | –
